What was measured:
Type in all cases: in vivo
[1] = system: Euschistus heros (Neotropical Brown Stink Bug); experiment: Activity against Euschistus heros (neotropical brown stink bug), sprayed soybean leaves; details: 120 h, application rate of 200 ppm, N2 nymphs, 5 days after infestation, read-out: effect in at least one of the two categories (mortality or growth inhibition)
Protocol: Example B3: Activity Against Euschistus heros (Neotropical Brown Stink Bug)
Soybean leaves on agar in 24-well microtiter plates were sprayed with aqueous test solutions prepared from 10′000 ppm DMSO stock solutions. After drying the leaves were infested with N2 nymphs. The samples were assessed for mortality and growth inhibition in comparison to untreated samples 5 days after infestation.
(§1) The following compounds gave an effect of at least 80% in at least one of the two categories (mortality or growth inhibition) at an application rate of 200 ppm: […]

[2] = system: Diabrotica Balteata (Corn Root Worm); experiment: Activity against Diabrotica balteata (corn root worm), sprayed maize sprouts; details: 96 h, application rate of 200 ppm, L2 larvae, 4 days after infestation, read-out: effect in at least one of the two categories (mortality or growth inhibition)
Protocol: Example B2: Activity Against Diabrotica Balteata (Corn Root Worm)
Maize sprouts placed onto an agar layer in 24-well microtiter plates were treated with aqueous test solutions prepared from 10′000 ppm DMSO stock solutions by spraying. After drying, the plates were infested with L2 larvae (6 to 10 per well). The samples were assessed for mortality and growth inhibition in comparison to untreated samples 4 days after infestation.
as §1

[3] = system: Spodoptera littoralis (Egyptian Cotton Leaf Worm); experiment: Activity against Spodoptera littoralis (Egyptian cotton leaf worm), sprayed cotton leaf discs; details: foliar, 72 h, application rate of 200 ppm, L1 larvae, 3 days after infestation
Protocol: Example B7: Activity Against Spodoptera littoralis (Egyptian Cotton Leaf Worm)
Cotton leaf discs were placed onto agar in 24-well microtiter plates and sprayed with aqueous test solutions prepared from 10′000 ppm DMSO stock solutions. After drying the leaf discs were infested with five L1 larvae. The samples were assessed for mortality, anti-feeding effect, and growth inhibition in comparison to untreated samples 3 days after infestation. Control of Spodoptera littoralis by a test sample is given when at least one of the categories mortality, anti-feedant effect, and growth inhibition is higher than the untreated sample.

[4] = system: Myzus persicae (Green Peach Aphid); experiment: Activity against Myzus persicae (green peach aphid), systemic activity, pea seedling roots in test solution; details: 144 h, test rate of 24 ppm, aphid population of mixed ages, 6 days after placing seedlings into test solutions
Protocol: Example B6: Activity Against Myzus persicae (Green Peach Aphid) Systemic Activity
Roots of pea seedlings infested with an aphid population of mixed ages were placed directly into aqueous test solutions prepared from 10′000 DMSO stock solutions. The samples were assessed for mortality 6 days after placing seedlings into test solutions.

[5] = system: Plutella xylostella (Diamond Back Moth); experiment: Activity against Plutella xylostella (diamond back moth), treated artificial diet; details: 192 h, application rate of 200 ppm, Plutella eggs, 8 days after infestation, read-out: effect in at least one of the two categories (mortality or growth inhibition)
Protocol: Example B4: Activity Against Plutella xylostella (Diamond Back Moth)
24-well microtiter plates with artificial diet were treated with aqueous test solutions prepared from 10′000 ppm DMSO stock solutions by pipetting. After drying, Plutella eggs were pipetted through a plastic stencil onto a gel blotting paper and the plate was closed with it. The samples were assessed for mortality and growth inhibition in comparison to untreated samples 8 days after infestation.
as §1

[6] = system: Bemisia tabaci (Cotton White Fly); experiment: Activity against Bemisia tabaci (cotton white fly), sprayed cotton leaf discs; details: foliar, 144 h, application rate of 200 ppm, adult white flies, 6 days after incubation
Protocol: Example B1: Activity Against Bemisia tabaci (Cotton White Fly)
Cotton leaf discs were placed on agar in 24-well microtiter plates and sprayed with aqueous test solutions prepared from 10′000 ppm DMSO stock solutions. After drying the leaf discs were infested with adult white flies. The samples were checked for mortality 6 days after incubation.

[7] = system: Myzus persicae (Green Peach Aphid); experiment: Activity against Myzus persicae (green peach aphid), feeding/contact activity, sunflower leaf discs; details: foliar, 144 h, application rate of 200 ppm, aphid population of mixed ages, 6 days after infestation
Protocol: Example B5: Activity Against Myzus persicae (Green Peach Aphid) Feeding/Contact Activity
Sunflower leaf discs were placed onto agar in a 24-well microtiter plate and sprayed with aqueous test solutions prepared from 10′000 ppm DMSO stock solutions. After drying, the leaf discs were infested with an aphid population of mixed ages. The samples were assessed for mortality 6 days after infestation.

CCS(=O)(=O)c1cc(C(C)(C)C#N)cnc1-c1ncc(OCC(F)(F)C(F)(F)F)c(=O)n1C [Compound P13, 2-[5-ethylsulfonyl-6-[1-methyl-6-oxo-5-(2,2,3,3,3-pentafluoropropoxy)pyrimidin-2-yl]-3-pyridyl]-2-methyl-propanenitrile]
≥ 80%: percent effect (mortality or growth inhibition) at 200 ppm [1] | percent effect (mortality or growth inhibition) at 200 ppm [2] | percent control (mortality, anti-feedant effect or growth inhibition) at 200 ppm [3] | mortality at 24 ppm [4] | percent effect (mortality or growth inhibition) at 200 ppm [5] | mortality at 200 ppm [6]

CCS(=O)(=O)c1cccnc1-c1ncc(OCC(F)(F)C(F)(F)F)c(=O)n1C [Compound P2, 2-(3-ethylsulfonyl-2-pyridyl)-3-methyl-5-(2,2,3,3,3-pentafluoro-propoxy)pyrimidin-4-one]
≥ 80%: percent effect (mortality or growth inhibition) at 200 ppm [1] | percent effect (mortality or growth inhibition) at 200 ppm [2] | percent control (mortality, anti-feedant effect or growth inhibition) at 200 ppm [3] | mortality at 200 ppm [7] | mortality at 24 ppm [4] | percent effect (mortality or growth inhibition) at 200 ppm [5] | mortality at 200 ppm [6]

CCS(=O)(=O)c1ccc(-n2cncn2)nc1-c1ncc(OCC(F)(F)C(F)(F)F)c(=O)n1C [Compound P14, 2-[3-ethylsulfonyl-6-(1,2,4-triazol-1-yl)-2-pyridyl]-3-methyl-5-(2,2,3,3,3-pentafluoropropoxy) pyrimidin-4-one]
≥ 80%: percent effect (mortality or growth inhibition) at 200 ppm [1] | percent effect (mortality or growth inhibition) at 200 ppm [2] | percent control (mortality, anti-feedant effect or growth inhibition) at 200 ppm [3] | mortality at 200 ppm [7] | mortality at 24 ppm [4] | percent effect (mortality or growth inhibition) at 200 ppm [5] | mortality at 200 ppm [6]

CCS(=O)(=O)c1cc(N(C)C(C)=O)cnc1-c1ncc(OCC(F)(F)C(F)(F)F)c(=O)n1C [Compound P5, N-[5-ethylsulfonyl-6-[1-methyl-6-oxo-5-(2,2,3,3,3-pentafluoropropoxy)-pyrimidin-2-yl]-3-pyridyl]-N-methyl-acetamide]
≥ 80%: percent effect (mortality or growth inhibition) at 200 ppm [1] | percent effect (mortality or growth inhibition) at 200 ppm [2] | mortality at 200 ppm [7] | mortality at 24 ppm [4] | percent effect (mortality or growth inhibition) at 200 ppm [5]

CCS(=O)(=O)c1ccc(N(C)C(=O)NC)nc1-c1ncc(OCC(F)(F)C(F)(F)F)c(=O)n1C [Compound P15, 1-[5-ethylsulfonyl-6-[1-methyl-6-oxo-5-(2,2,3,3,3-pentafluoropropoxy)pyrimidin-2-yl]-2-pyridyl]-1,3-dimethyl-urea]
≥ 80%: percent effect (mortality or growth inhibition) at 200 ppm [1] | mortality at 200 ppm [7] | mortality at 24 ppm [4]

CCS(=O)(=O)c1cc(C2(C#N)CC2)cnc1-c1ncc(OCC(F)(F)C(F)(F)F)c(=O)n1C [Compound P11, 1-[5-ethylsulfonyl-6-[1-methyl-6-oxo-5-(2,2,3,3,3-pentafluoropropoxy)-pyrimidin-2-yl]-3-pyridyl]cyclopropanecarbonitrile]
≥ 80%: percent effect (mortality or growth inhibition) at 200 ppm [1] | percent effect (mortality or growth inhibition) at 200 ppm [2] | percent control (mortality, anti-feedant effect or growth inhibition) at 200 ppm [3] | mortality at 200 ppm [7] | mortality at 24 ppm [4] | percent effect (mortality or growth inhibition) at 200 ppm [5] | mortality at 200 ppm [6]

CCS(=O)(=O)c1ccc(N(C)C(C)=O)nc1-c1ncc(OCC(F)(F)C(F)(F)F)c(=O)n1C [Compound P9, N-[5-ethylsulfonyl-6-[1-methyl-6-oxo-5-(2,2,3,3,3-pentafluoropropoxy)-pyrimidin-2-yl]-2-pyridyl]-N-methyl-acetamide]
≥ 80%: percent effect (mortality or growth inhibition) at 200 ppm [2] | mortality at 200 ppm [7] | mortality at 24 ppm [4] | percent effect (mortality or growth inhibition) at 200 ppm [5] | mortality at 200 ppm [6]

CCS(=O)(=O)c1cc(C2CC2)cnc1-c1ncc(OCC(F)(F)C(F)(F)F)c(=O)n1C [Compound P18, 2-(5-cyclopropyl-3-ethylsulfonyl-2-pyridyl)-3-methyl-5-(2,2,3,3,3-pentafluoropropoxy) pyrimidin-4-one]
≥ 80%: percent effect (mortality or growth inhibition) at 200 ppm [1] | percent effect (mortality or growth inhibition) at 200 ppm [2] | percent control (mortality, anti-feedant effect or growth inhibition) at 200 ppm [3] | mortality at 200 ppm [7] | mortality at 24 ppm [4] | percent effect (mortality or growth inhibition) at 200 ppm [5]

CCSc1cccnc1-c1ncc(OCC(F)(F)C(F)(F)F)c(=O)n1C [Compound P1, 2-(3-ethylsulfanyl-2-pyridyl)-3-methyl-5-(2,2,3,3,3-pentafluoro-propoxy)pyrimidin-4-one]
≥ 80%: percent effect (mortality or growth inhibition) at 200 ppm [1] | percent effect (mortality or growth inhibition) at 200 ppm [2] | mortality at 200 ppm [7] | mortality at 24 ppm [4] | percent effect (mortality or growth inhibition) at 200 ppm [5] | mortality at 200 ppm [6]

CCS(=O)(=O)c1ccc(N(C)C(=O)C2CC2)nc1-c1ncc(OCC(F)(F)C(F)(F)F)c(=O)n1C [Compound P16, N-[5-ethylsulfonyl-6-[1-methyl-6-oxo-5-(2,2,3,3,3-pentafluoropropoxy)pyrimidin-2-yl]-2-pyridyl]-N-methyl-cyclo-propanecarboxamide]
≥ 80%: percent effect (mortality or growth inhibition) at 200 ppm [1] | percent effect (mortality or growth inhibition) at 200 ppm [2] | percent control (mortality, anti-feedant effect or growth inhibition) at 200 ppm [3] | mortality at 200 ppm [7] | mortality at 24 ppm [4] | percent effect (mortality or growth inhibition) at 200 ppm [5] | mortality at 200 ppm [6]

CCS(=O)(=O)c1cc(Oc2ccccn2)cnc1-c1ncc(OCC(F)(F)C(F)(F)F)c(=O)n1C [Compound P20, 2-[3-ethylsulfonyl-5-(2-pyridyloxy)-2-pyridyl]-3-methyl-5-(2,2,3,3,3-pentafluoropropoxy) pyrimidin-4-one]
≥ 80%: percent effect (mortality or growth inhibition) at 200 ppm [1] | percent effect (mortality or growth inhibition) at 200 ppm [2] | percent control (mortality, anti-feedant effect or growth inhibition) at 200 ppm [3] | mortality at 200 ppm [7] | mortality at 24 ppm [4] | percent effect (mortality or growth inhibition) at 200 ppm [5]
